# Measured values reported in US4877796A (priority 1986, dated 1989).
# Where two headings read alike, the source gives them in different places.
# System: disturbances of the cardiac rhythm (aconitine) in the rat
# Format: in vivo
# Conditions: for Precentage of the protraction of time: aconitine perfusion five minutes after administration, compared with controls
compound,measurement,setting,value
"CN1CCC[C@H]2CCC[C@@H](N(C)C(=O)Cc3ccc(Cl)c(Cl)c3)[C@@H]21 [Example 2, [4aRS(4aα,8α,8aα)](+) N-(decahydro-1-methyl-8-quinolinyl)-3,4-dichloro-N-methyl-benzene-acetamide]",Precentage of the protraction of time,2.5 mg/kg intravenously,16%
same,Precentage of the protraction of time,5 mg/kg intravenously,28%
same,Precentage of the protraction of time,10 mg/kg intravenously,43%
same,antiarrythmic properties (in words),"intravenously, aconitine model",good antiarrythmic properties
